Experimental data published in article PMC6437697 (Journal of Medicinal Chemistry, 2019).

What was measured:
Format in all cases: binding
EGFR(L861Q) = biological target: T1, EGFR(L861Q) (Homo sapiens, UniProt P00533, L861Q); experiment: KINOMEscan; settings: read-out: % control activity remaining
T1 construct: purchased Eurofins DiscoverX KINOMEscan

EPHA3 = biological target: T2, EPHA3 (Homo sapiens, UniProt P29320); experiment: KINOMEscan; settings: read-out: % control activity remaining
T2 construct: purchased Eurofins DiscoverX KINOMEscan
T2 sequence (P29320 21-983): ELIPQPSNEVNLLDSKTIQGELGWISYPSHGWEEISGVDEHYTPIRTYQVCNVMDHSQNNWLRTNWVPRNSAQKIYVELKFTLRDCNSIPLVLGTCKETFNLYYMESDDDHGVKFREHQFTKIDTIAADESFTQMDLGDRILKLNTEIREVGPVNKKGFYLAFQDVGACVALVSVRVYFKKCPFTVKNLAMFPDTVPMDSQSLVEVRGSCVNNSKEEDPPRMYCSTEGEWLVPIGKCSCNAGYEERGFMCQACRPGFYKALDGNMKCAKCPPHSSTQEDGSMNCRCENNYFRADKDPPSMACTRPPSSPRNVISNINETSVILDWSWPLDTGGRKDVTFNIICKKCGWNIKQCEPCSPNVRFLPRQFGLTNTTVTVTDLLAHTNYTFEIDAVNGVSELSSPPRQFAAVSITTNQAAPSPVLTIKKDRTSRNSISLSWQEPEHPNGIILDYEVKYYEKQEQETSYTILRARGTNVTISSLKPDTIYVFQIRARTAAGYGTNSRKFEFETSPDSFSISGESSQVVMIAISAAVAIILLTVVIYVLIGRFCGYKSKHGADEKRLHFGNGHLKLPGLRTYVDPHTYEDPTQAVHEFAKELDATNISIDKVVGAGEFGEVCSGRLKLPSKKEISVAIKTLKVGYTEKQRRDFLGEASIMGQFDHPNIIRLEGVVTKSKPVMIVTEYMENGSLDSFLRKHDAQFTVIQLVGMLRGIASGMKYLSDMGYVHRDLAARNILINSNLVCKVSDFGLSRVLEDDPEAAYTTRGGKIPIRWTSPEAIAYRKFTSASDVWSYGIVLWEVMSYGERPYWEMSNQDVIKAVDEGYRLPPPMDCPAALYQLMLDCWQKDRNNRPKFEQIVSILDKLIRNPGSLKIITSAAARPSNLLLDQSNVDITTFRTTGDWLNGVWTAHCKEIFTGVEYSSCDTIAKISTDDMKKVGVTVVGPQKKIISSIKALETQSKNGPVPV

SGK2 = biological target: T3, SGK2 (Homo sapiens, UniProt Q9HBY8); experiment: KINOMEscan; settings: read-out: % control activity remaining
T3 construct: purchased Eurofins DiscoverX KINOMEscan
T3 sequence (Q9HBY8 1-367): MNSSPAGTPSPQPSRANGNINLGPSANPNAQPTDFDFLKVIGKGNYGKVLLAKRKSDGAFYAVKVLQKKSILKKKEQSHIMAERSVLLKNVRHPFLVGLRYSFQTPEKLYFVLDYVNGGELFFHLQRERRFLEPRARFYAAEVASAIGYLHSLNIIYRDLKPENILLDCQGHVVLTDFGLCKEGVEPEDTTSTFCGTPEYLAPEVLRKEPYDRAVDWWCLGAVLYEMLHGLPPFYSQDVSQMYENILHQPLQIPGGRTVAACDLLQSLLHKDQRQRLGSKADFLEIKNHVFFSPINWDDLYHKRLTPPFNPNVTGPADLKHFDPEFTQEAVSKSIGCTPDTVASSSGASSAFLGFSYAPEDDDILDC

HUNK = biological target: T4, HUNK (Homo sapiens, UniProt P57058); experiment: KINOMEscan; settings: read-out: % control activity remaining
T4 construct: purchased Eurofins DiscoverX KINOMEscan
T4 sequence (P57058 1-714): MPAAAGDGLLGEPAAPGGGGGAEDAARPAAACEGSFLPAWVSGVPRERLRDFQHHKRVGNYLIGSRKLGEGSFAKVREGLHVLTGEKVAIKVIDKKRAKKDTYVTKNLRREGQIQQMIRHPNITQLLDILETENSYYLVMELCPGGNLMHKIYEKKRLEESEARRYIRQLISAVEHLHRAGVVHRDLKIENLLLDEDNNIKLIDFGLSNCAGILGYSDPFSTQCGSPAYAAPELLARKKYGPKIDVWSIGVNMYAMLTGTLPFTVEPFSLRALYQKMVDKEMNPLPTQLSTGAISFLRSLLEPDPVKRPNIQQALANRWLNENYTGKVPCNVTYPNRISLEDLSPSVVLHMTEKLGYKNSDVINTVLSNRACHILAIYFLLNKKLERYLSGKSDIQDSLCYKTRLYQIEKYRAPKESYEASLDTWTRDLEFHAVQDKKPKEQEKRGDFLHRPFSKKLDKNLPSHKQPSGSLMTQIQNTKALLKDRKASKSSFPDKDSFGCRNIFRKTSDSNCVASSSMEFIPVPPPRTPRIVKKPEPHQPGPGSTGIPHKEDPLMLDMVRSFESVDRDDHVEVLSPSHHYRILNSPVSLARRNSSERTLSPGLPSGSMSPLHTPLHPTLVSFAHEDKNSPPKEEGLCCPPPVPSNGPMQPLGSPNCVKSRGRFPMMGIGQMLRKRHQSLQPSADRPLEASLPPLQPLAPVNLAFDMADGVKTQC

SRMS = biological target: T5, SRMS (Homo sapiens, UniProt Q9H3Y6); experiment: KINOMEscan; settings: read-out: % control activity remaining
T5 construct: purchased Eurofins DiscoverX KINOMEscan

[1] = test system: 455 wild-type and mutant human protein and lipid kinases; experiment: KINOMEscan panel summary; settings: 1 μM
CSNK1A1L = biological target: T6, CSNK1A1L (Homo sapiens, UniProt Q8N752); experiment: KINOMEscan; settings: read-out: % control activity remaining
T6 construct: purchased Eurofins DiscoverX KINOMEscan
T6 sequence (Q8N752 1-337): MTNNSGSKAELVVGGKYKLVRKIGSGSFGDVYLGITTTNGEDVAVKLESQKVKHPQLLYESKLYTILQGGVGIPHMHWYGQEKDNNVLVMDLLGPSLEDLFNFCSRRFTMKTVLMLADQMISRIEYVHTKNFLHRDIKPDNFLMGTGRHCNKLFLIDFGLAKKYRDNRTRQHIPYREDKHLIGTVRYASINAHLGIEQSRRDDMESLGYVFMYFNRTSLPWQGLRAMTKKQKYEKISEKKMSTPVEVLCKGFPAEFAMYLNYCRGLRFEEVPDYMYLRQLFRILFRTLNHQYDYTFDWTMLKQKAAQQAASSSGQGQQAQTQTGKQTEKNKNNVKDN

T1 sequence (P00533 25-1210 L861Q limits assumed): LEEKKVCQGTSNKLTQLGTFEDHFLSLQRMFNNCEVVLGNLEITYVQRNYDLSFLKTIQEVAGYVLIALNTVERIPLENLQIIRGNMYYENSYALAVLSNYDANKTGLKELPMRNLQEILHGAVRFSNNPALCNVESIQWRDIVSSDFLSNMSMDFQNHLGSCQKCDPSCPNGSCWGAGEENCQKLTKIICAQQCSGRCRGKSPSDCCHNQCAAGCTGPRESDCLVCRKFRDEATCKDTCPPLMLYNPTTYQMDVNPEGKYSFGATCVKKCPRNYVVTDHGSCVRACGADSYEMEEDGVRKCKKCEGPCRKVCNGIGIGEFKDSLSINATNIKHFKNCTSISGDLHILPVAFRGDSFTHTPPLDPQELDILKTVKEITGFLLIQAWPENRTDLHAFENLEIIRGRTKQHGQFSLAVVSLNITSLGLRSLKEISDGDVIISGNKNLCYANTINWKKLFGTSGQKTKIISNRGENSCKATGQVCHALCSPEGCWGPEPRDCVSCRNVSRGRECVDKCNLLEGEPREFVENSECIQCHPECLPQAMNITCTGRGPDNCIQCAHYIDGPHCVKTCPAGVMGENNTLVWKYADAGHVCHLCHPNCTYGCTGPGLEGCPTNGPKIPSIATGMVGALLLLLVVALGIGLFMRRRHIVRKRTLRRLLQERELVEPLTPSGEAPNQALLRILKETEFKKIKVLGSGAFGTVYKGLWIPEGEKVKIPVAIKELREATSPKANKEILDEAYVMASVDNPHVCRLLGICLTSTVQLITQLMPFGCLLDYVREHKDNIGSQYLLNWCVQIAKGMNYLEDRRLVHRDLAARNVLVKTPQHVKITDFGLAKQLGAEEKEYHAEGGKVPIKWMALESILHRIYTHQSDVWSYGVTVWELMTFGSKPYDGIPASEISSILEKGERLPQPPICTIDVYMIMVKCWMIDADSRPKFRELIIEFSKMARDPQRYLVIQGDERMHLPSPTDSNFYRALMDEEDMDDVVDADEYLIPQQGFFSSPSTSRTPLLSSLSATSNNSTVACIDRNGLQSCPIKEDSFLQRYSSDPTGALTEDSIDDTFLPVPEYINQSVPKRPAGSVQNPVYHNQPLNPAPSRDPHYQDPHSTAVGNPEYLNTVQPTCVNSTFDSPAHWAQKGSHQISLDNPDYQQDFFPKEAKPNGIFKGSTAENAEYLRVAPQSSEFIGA
T5 sequence (Q9H3Y6 whole entry): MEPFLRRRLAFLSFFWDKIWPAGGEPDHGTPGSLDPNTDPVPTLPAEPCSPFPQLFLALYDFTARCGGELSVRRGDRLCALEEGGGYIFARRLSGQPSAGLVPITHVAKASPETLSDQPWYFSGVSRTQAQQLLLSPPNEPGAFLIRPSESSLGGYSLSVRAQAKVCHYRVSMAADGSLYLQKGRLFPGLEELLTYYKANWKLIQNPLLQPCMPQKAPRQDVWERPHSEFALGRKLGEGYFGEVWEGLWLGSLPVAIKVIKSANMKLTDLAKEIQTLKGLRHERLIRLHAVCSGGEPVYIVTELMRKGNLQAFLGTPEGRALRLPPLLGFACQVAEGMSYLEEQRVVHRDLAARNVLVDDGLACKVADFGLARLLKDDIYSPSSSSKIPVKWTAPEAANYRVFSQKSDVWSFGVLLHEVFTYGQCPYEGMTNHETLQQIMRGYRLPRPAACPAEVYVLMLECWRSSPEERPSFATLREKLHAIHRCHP

Question: Which remaining binding at 1 µM (EGFR(L861Q)) does the source give for `Clc1cc(NCC2CC2)c2ncc(-c3ccc4[nH]ncc4c3)n2n1` [compound 2, 6-Chloro-N-(cyclopropylmethyl)-3-(1H-indazol-5-yl)imidazo[1,2-b]pyridazin-8-amine] here?
Answer: The remaining binding at 1 µM was 82%.

Question: What about the remaining binding at 1 µM (EPHA3) of the same compound?
Answer: Its remaining binding at 1 µM is 78%.

Question: And the remaining binding at 1 µM (SGK2)?
Answer: The remaining binding at 1 µM was 89%.

Question: What about the remaining binding at 1 µM (HUNK) of the same compound?
Answer: The remaining binding at 1 µM was 90%.

Question: And the remaining binding at 1 µM (SRMS)?
Answer: The remaining binding at 1 µM was 91%.

Question: And the “kinases with >70% inhibition / wild-type and mutant kinases tested” value [1]?
Answer: The value was 26/455.

Question: And the remaining binding at 1 µM (CSNK1A1L)?
Answer: Its remaining binding at 1 µM is 100%.

Question: Which remaining binding at 1 µM (EGFR(L861Q)) does the source give for `O=C(CN1CCOCC1)N[C@H]1CC[C@H](Nc2cc(Cl)nn3c(-c4ccc5[nH]ncc5c4)cnc23)CC1` [compound 26] here?
Answer: Its remaining binding at 1 µM is 100%.

Question: And the remaining binding at 1 µM (EPHA3)?
Answer: The remaining binding at 1 µM was 88%.

Question: And the remaining binding at 1 µM (SGK2)?
Answer: Its remaining binding at 1 µM is 100%.

Question: What about the remaining binding at 1 µM (HUNK) of the same compound?
Answer: The remaining binding at 1 µM was 100%.

Question: What about the remaining binding at 1 µM (SRMS) of the same compound?
Answer: The remaining binding at 1 µM was 86%.

Question: What about the “kinases with >70% inhibition / wild-type and mutant kinases tested” value [1] of the same compound?
Answer: The value was 54/455.

Question: And the remaining binding at 1 µM (CSNK1A1L)?
Answer: The remaining binding at 1 µM was 88%.

Question: What does the source list for `CN1CCC(CNc2cc(Cl)nn3c(-c4cc5nc(Nc6ccccc6)[nH]c5cc4F)cnc23)CC1` [compound 31, 6-Chloro-3-(6-fluoro-2-(phenylamino)-1H-benzo[d]imidazol-5-yl)-N-((1-methylpiperidin-4-yl)methyl)imidazo[1,2-b]pyridazin-8-amine]?
Answer: remaining binding at 1 µM (EGFR(L861Q)): 100%; remaining binding at 1 µM (EPHA3): 100%; remaining binding at 1 µM (SGK2): 83%; remaining binding at 1 µM (HUNK): 92%; remaining binding at 1 µM (SRMS): 95%; kinases with >70% inhibition / wild-type and mutant kinases tested [1]: 4/455; remaining binding at 1 µM (CSNK1A1L): 100%
